Experimental data as given in patent US20210261512A1, “NOVEL COMPOUNDS” (INFLAZOME LIMITED, priority 2018, published 2021).

Target: NLRP3 (Homo sapiens, UniProt Q96P20)
Assay: THP-1 cells pyroptosis assay
Assay type: cell-based
Design: Seed THP-1 cells (25,000 cells/well) containing 1.0 μg/ml LPS; host or cells: THP-1
Conditions: LPS 1.0 μg/ml, nigericin 5 μM, resazurin readout, 10 μM top dose (Example 2: top dose of 30 μM)
Experimental: THP-1 cells (ATCC #TIB-202) were grown in RPMI containing L-glutamine (Gibco #11835) supplemented with imM sodium pyruvate (Sigma #S8636) and penicillin (100 units/ml)/streptomycin (0.1 mg/ml) (Sigma #P4333) in 10% Fetal Bovine Serum (FBS) (Sigma #F0804). The cells were routinely passaged and grown to confluency (˜10^6 cells/ml). On the day of the experiment, THP-1 cells were harvested and resuspended into RPMI medium (without FBS). The cells were then counted and viability (>90%) checked by Trypan blue (Sigma #T8154). Appropriate dilutions were made to give a concentration of 625,000 cells/ml. To this diluted cell solution was added LPS (Sigma #L4524) to give a 1 μg/ml Final Assay Concentration (FAC). 40 μl of the final preparation was aliquoted into each well of a 96-well plate. The plate thus prepared was used for compound screening.
The following method step-by-step assay was followed for compound screening. • 1. Seed THP-1 cells (25,000 cells/well) containing 1.0 μg/ml LPS in 40 μl of RPMI medium (without FBS) in 96-well, black walled, clear bottom cell culture plates coated with poly-D-lysine (VWR #734-0317) • 2. Add 5 μl compound (8 points four-fold dilution or 8 points half-log dilution, with 10 μM top dose, unless stated otherwise) or vehicle (DMSO 0.1% FAC) to the appropriate wells • 3. Incubate for 3 hrs at 37° C. and 5% CO2 • 4. Add 5 μl nigericin (Sigma #N7143) (FAC 5 μM) to all wells • 5. Incubate for 1 hr at 37° C. and 5% CO2 • 6. At the end of the incubation period, spin plates at 300×g for 3 mins and remove supernatant • 7. Then add 50 μl of resazurin (Sigma #R^7017) (FAC 100 μM resazurin in RPMI medium without FBS) and incubate plates for a further 1-2 hrs at 37° C. and 5% CO2 • 8. Plates were read in an Envision reader at Ex 560 nm and Em 590 nm • 9. IC50 data is fitted to a non-linear regression equation (log inhibitor vs response-variable slope 4-parameters)

Sequence of NLRP3 (Q96P20 whole entry): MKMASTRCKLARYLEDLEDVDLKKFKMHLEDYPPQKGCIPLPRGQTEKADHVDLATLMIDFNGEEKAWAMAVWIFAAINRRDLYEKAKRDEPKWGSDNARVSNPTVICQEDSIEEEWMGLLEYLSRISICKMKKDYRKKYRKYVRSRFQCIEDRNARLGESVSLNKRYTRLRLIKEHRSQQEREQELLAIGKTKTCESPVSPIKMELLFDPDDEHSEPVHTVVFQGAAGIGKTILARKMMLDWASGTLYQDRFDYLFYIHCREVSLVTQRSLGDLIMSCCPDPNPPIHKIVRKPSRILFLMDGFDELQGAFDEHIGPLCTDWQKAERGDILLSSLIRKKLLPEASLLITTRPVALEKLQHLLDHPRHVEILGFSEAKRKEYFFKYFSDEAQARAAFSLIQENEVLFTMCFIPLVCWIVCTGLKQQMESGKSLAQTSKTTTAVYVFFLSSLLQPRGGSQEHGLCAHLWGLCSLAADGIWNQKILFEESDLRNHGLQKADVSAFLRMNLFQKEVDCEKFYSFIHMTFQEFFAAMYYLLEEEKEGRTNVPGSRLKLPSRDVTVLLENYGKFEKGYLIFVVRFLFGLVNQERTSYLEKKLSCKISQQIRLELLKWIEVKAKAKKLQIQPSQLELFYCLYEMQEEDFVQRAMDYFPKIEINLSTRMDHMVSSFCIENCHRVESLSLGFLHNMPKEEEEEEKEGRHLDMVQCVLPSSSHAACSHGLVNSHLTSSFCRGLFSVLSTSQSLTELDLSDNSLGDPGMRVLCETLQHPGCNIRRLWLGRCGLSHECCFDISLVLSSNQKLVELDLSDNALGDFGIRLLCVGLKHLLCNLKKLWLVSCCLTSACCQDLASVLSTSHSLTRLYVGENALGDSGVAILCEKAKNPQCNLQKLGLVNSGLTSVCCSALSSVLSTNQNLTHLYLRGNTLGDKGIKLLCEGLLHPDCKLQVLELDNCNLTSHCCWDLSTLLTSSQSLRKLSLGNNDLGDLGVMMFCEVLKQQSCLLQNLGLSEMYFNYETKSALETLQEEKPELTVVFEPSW

| SMILES | IC50 |
| --- | --- |
| O=C1CCCN1CCNS(=O)(=O)c1nnc(Nc2c3c(cc4c2CCC4)CCC3)[nH]1 [Example 114, 5-((1,2,3,5,6,7-hexahydro-s-indacen-4-yl)amino)-N-(2-(2-oxopyrrolidin-1-yl)ethyl)-4H-1,2,4-triazole-3-sulfonamide] | ≤ 5 µM |
| CC(C)c1cc(F)cc(C(C)C)c1Cc1nnc(S(=O)(=O)N2CCC(CN(C)C)C2)[nH]1 (centres unmarked) [Example 161, 1-(1-((5-(4-fluoro-2,6-diisopropylbenzyl)-4H-1,2,4-triazol-3-yl)-sulfonyl)pyrrolidin-3-yl)-N,N-dimethylmethanamine] | ≤ 5 µM |
| CN(C)C1CCN(S(=O)(=O)c2nnc(Nc3c4c(c(C#N)c5c3CCC5)CCC4)[nH]2)CC1 [Example 223, 8-((5-((4-(dimethylamino)piperidin-1-yl)sulfonyl)-4H-1,2,4-triazol-3-yl)amino)-1,2,3,5,6,7-hexahydro-s-indacene-4-carbonitrile] | ≤ 5 µM |
| O=S(=O)(CC1CCOC1)c1nnc(Nc2c3c(cc4c2CCC4)CCC3)[nH]1 (centres unmarked) [Example 66, N-(1,2,3,5,6,7-hexahydro-s-indacen-4-yl)-3-(((tetrahydrofuran-3-yl)methyl)sulfonyl)-1H-1,2,4-triazol-5-amine] | ≤ 10 µM |
| CC(C)(O)CCNS(=O)(=O)c1nnc(Nc2c3c(cc4c2CCC4)CCC3)[nH]1 [Example 116, 5-((1,2,3,5,6,7-hexahydro-s-indacen-4-yl)amino)-N-(3-hydroxy-3-methylbutyl)-4H-1,2,4-triazole-3-sulfonamide] | ≤ 5 µM |
| CS(=O)(=O)c1nnc(Nc2c3c(c(C#N)c4c2CCC4)CCC3)[nH]1 [Example 322, 8-((5-(methylsulfonyl)-4H-1,2,4-triazol-3-yl)amino)-1,2,3,5,6,7-hexahydro-s-indacene-4-carbonitrile] | ≤ 5 µM |
| CC(C)c1cc(F)cc(C(C)C)c1Cc1nnc(S(=O)(=O)Cc2ccc(F)cc2)[nH]1 [Example 28, 3-(4-fluoro-2,6-diisopropylbenzyl)-5-((4-fluorobenzyl)sulfonyl)-4H-1,2,4-triazole] | ≤ 10 µM |
| CC(C)n1ccc(S(=O)(=O)c2nnc(Cc3c4c(cc5c3CCC5)CCC4)[nH]2)n1 [Example 30, 3-((1,2,3,5,6,7-hexahydro-s-indacen-4-yl)methyl)-5-((1-isopropyl-1H-pyrazol-3-yl)sulfonyl)-4H-1,2,4-triazole] | ≤ 10 µM |
| CN1CCC(NS(=O)(=O)c2nnc(Nc3c4c(cc5c3CCC5)CCC4)[nH]2)C1 (centres unmarked) [Example 84, 5-((1,2,3,5,6,7-hexahydro-s-indacen-4-yl)amino)-N-(1-methylpyrrolidin-3-yl)-4H-1,2,4-triazole-3-sulfonamide] | ≤ 5 µM |
| CC(C)n1ncc(-c2ccncc2)c1Nc1nnc(S(=O)(=O)N2CCC(N(C)C)CC2)[nH]1 [Example 198, 1-((5-((1-isopropyl-4-(pyridin-4-yl)-1H-pyrazol-5-yl)amino)-4H-1,2,4-triazol-3-yl)sulfonyl)-N,N-dimethylpiperidin-4-amine] | ≤ 10 µM |
| O=S(=O)(CC1CNCCO1)c1nnc(Nc2c3c(cc4c2CCC4)CCC3)[nH]1 (centres unmarked) [Example 57, N-(1,2,3,5,6,7-hexahydro-s-indacen-4-yl)-3-((morpholin-2-ylmethyl)sulfonyl)-1H-1,2,4-triazol-5-amine] | ≤ 10 µM |
| CN(C)CC1CCN(S(=O)(=O)c2nnc(Cc3c4c(cc5c3CCC5)CCC4)[nH]2)C1 (centres unmarked) [Example 158, 1-(1-((5-((1,2,3,5,6,7-hexahydro-s-indacen-4-yl)methyl)-4H-1,2,4-triazol-3-yl)sulfonyl)pyrrolidin-3-yl)-N,N-dimethylmethanamine] | ≤ 5 µM |
| O=S(=O)(c1nnc(Nc2c3c(cc4c2CCC4)CCC3)[nH]1)N1CCC(N2CCOCC2)C1 (centres unmarked) [Example 127, N-(1,2,3,5,6,7-hexahydro-s-indacen-4-yl)-5-((3-morpholinopyrrolidin-1-yl)sulfonyl)-4H-1,2,4-triazol-3-amine] | ≤ 5 µM |
| CN1CCN(S(=O)(=O)c2nnc(Nc3c4c(cc5c3CCC5)CCC4)[nH]2)CC1=O [Example 113, 4-((5-((1,2,3,5,6,7-hexahydro-s-indacen-4-yl)amino)-4H-1,2,4-triazol-3-yl)sulfonyl)-1-methylpiperazin-2-one] | ≤ 5 µM |
| CN1CCCN(S(=O)(=O)c2nnc(Nc3c4c(cc5c3CCC5)CCC4)[nH]2)CC1 [Example 273, N-(1,2,3,5,6,7-hexahydro-s-indacen-4-yl)-5-((4-methyl-1,4-diazepan-1-yl)sulfonyl)-4H-1,2,4-triazol-3-amine] | ≤ 10 µM |
| O=S(=O)(CCCO)c1nnc(Nc2c3c(cc4c2CCC4)CCC3)[nH]1 [Example 47, 3-((5-((1,2,3,5,6,7-hexahydro-s-indacen-4-yl)amino)-4H-1,2,4-triazol-3-yl)sulfonyl)propan-1-ol] | ≤ 5 µM |
| O=S(=O)(c1nnc(Nc2c3c(cc4c2CCC4)CCC3)[nH]1)N1CCC(F)(F)CC1 [Example 297, 5-((4,4-difluoropiperidin-1-yl)sulfonyl)-N-(1,2,3,5,6,7-hexahydro-s-indacen-4-yl)-4H-1,2,4-triazol-3-amine] | ≤ 10 µM |
| CN(C)CCn1cc(S(=O)(=O)c2nnc(Nc3c4c(cc5c3CCC5)CCC4)[nH]2)cn1 [Example 350, 5-((1-(2-(dimethylamino)ethyl)-1H-pyrazol-4-yl)sulfonyl)-N-(1,2,3,5,6,7-hexahydro-s-indacen-4-yl)-4H-1,2,4-triazol-3-amine] | ≤ 1 µM |
| CN1CCC(CN(C)S(=O)(=O)c2nnc(Nc3c4c(cc5c3CCC5)CCC4)[nH]2)C1 (centres unmarked) [Example 92, 5-((1,2,3,5,6,7-hexahydro-s-indacen-4-yl)amino)-N-methyl-N-((1-methylpyrrolidin-3-yl)methyl)-4H-1,2,4-triazole-3-sulfonamide] | ≤ 10 µM |

Results, then the compound that gave them:

| IC50 | SMILES |
| --- | --- |
| ≤ 5 µM | O=S(=O)(NCCc1ccccc1)c1nnc(Nc2c3c(cc4c2CCC4)CCC3)[nH]1 [Example 134, 5-((1,2,3,5,6,7-hexahydro-s-indacen-4-yl)amino)-N-phenethyl-4H-1,2,4-triazole-3-sulfonamide] |
| ≤ 5 µM | COc1cc(-c2ccc3c(c2Cc2nnc(S(=O)(=O)N4CCC(CN(C)C)C4)[nH]2)CCC3)ccn1 (centres unmarked) [Example 160, 1-(1-((5-((5-(2-methoxypyridin-4-yl)-2,3-dihydro-1H-inden-4-yl)-methyl)-4H-1,2,4-triazol-3-yl)sulfonyl)pyrrolidin-3-yl)-N,N-dimethylmethanamine] |
| ≤ 5 µM | COc1cccc(S(=O)(=O)c2nnc(Nc3c4c(cc5c3CCC5)CCC4)[nH]2)c1 [Example 175, N-(1,2,3,5,6,7-hexahydro-s-indacen-4-yl)-5-((3-methoxyphenyl)sulfonyl)-4H-1,2,4-triazol-3-amine] |
| ≤ 5 µM | NS(=O)(=O)c1cccc(S(=O)(=O)c2nnc(Nc3c4c(cc5c3CCC5)CCC4)[nH]2)c1 [Example 326, 3-((5-((1,2,3,5,6,7-hexahydro-s-indacen-4-yl)amino)-4H-1,2,4-triazol-3-yl)sulfonyl)benzenesulfonamide] |
| ≤ 5 µM | O=S(=O)(c1ccc(F)cc1)c1nnc(Nc2c3c(cc4c2CCC4)CCC3)[nH]1 [Example 181, 5-((4-fluorophenyl)sulfonyl)-N-(1,2,3,5,6,7-hexahydro-s-indacen-4-yl)-4H-1,2,4-triazol-3-amine] |
| ≤ 5 µM | CN(C)c1cccc(CS(=O)(=O)c2nnc(Nc3c4c(cc5c3CCC5)CCC4)[nH]2)c1 [Example 74, 3-((3-(dimethylamino)benzyl)sulfonyl)-N-(1,2,3,5,6,7-hexahydro-s-indacen-4-yl)-1H-1,2,4-triazol-5-amine] |
| ≤ 1 µM | Cc1ccccc1S(=O)(=O)c1nnc(Nc2c3c(cc4c2CCC4)CCC3)[nH]1 [Example 187, N-(1,2,3,5,6,7-hexahydro-s-indacen-4-yl)-5-(o-tolylsulfonyl)-4H-1,2,4-triazol-3-amine] |
| ≤ 5 µM | COc1cc(-c2ccc3c(c2Nc2nnc(S(=O)(=O)c4ccccc4)[nH]2)CCO3)ccn1 [Example 190, N-(5-(2-methoxypyridin-4-yl)-2,3-dihydrobenzofuran-4-yl)-5-(phenylsulfonyl)-4H-1,2,4-triazol-3-amine] |
| ≤ 10 µM | CS(=O)(=O)c1nnc(Nc2c(-c3ccnc(OC4CCNCC4)c3)ccc3c2CCC3)[nH]1 [Example 357, 5-(methylsulfonyl)-N-(5-(2-(piperidin-4-yloxy)pyridin-4-yl)-2,3-dihydro-1H-inden-4-yl)-4H-1,2,4-triazol-3-amine] |
| ≤ 5 µM | Cc1cc2c(c(Nc3nnc(S(C)(=O)=O)[nH]3)c1-c1ccnc(OC3CCNCC3)c1)CCC2 [Example 368, N-(6-methyl-5-(2-(piperidin-4-yloxy)pyridin-4-yl)-2,3-dihydro-1H-inden-4-yl)-5-(methylsulfonyl)-4H-1,2,4-triazol-3-amine] |
